How the values were obtained:
Test in all cases: quantitative drug diffusion assay (zone of inhibition, CLSI)
Type in all cases: cell-based
E. coli 7MP = system: E. coli 7MP; set-up: key: (R): Resistant; (I): Intermediate; (S): Sensitive (Interpretation as per CLSI recommendations, 2010); conditions: CLSI recommendations, 2010
Excerpt: (§1) Antibacterial activity of cefepime combination with tazobactam against various bacterial strains, including those bacteria that are known to product one or more beta-lactamase, was investigated in quantitative drug diffusion assay performed as per CLSI recommendations (Clinical and Laboratory Standards Institute (CLSI), performance Standards for Antimicrobial Susceptibility Testing, 20th Informational Supplement, M 100-S20, Volume 30, No. 1, 2010).
(§2) In a typical study, overnight grown bacterial cultures after appropriate dilution were seed inoculated in the molten, cooled agar media and plates poured. Antibacterial agents containing 6 mm diameter discs were placed on the top of the agar surface. Zone of inhibition based observation was performed after 16 to 18 hours of incubation at 35±2° C. in ambient air. These assays are routinely used in determining possibility of treating a particular infection using given antibacterial agent or a composition. In general, zone inhibition values in the sensitive (S) range indicate that the strain is susceptible to that antibacterial agent or composition. It is generally assumed that the antibacterial agent or the combination under consideration would not be effective in treating the infection, if the zone inhibition values are in the resistant (R) range.

E. coli M50 = system: E. coli M50; set-up: key: (R): Resistant; (I): Intermediate; (S): Sensitive (Interpretation as per CLSI recommendations, 2010); conditions: CLSI recommendations, 2010
Excerpt: as §1, §2

E. coli B-89 = system: E. coli B-89; set-up: key: (R): Resistant; (I): Intermediate; (S): Sensitive (Interpretation as per CLSI recommendations, 2010); conditions: CLSI recommendations, 2010
Excerpt: as §1, §2

E. coli B-123 = system: E. coli B-123; set-up: key: (R): Resistant; (I): Intermediate; (S): Sensitive (Interpretation as per CLSI recommendations, 2010); conditions: CLSI recommendations, 2010
Excerpt: as §1, §2

E. coli S-112 = system: E. coli S-112; set-up: key: (R): Resistant; (I): Intermediate; (S): Sensitive (Interpretation as per CLSI recommendations, 2010); conditions: CLSI recommendations, 2010
Excerpt: as §1, §2

E. coli M-138 = system: E. coli M-138; set-up: key to CLSI susceptibility interpretation: (R): Resistant; (I): Intermediate; (S): Sensitive (Interpretation as per CLSI recommendations, 2010)
Excerpt: as §1, §2

CO/N=C(\C(=O)N[C@@H]1C(=O)N2C(C(=O)[O-])=C(C[N+]3(C)CCCC3)CS[C@H]12)c1csc(N)n1 [Cefepime, cefepime]
CLSI susceptibility interpretation (E. coli 7MP): (I) | CLSI susceptibility interpretation (E. coli M50): (R) | CLSI susceptibility interpretation (E. coli B-89): (R) | CLSI susceptibility interpretation (E. coli B-123): (R) | CLSI susceptibility interpretation (E. coli S-112): (I) | Zone of Inhibition (E. coli M-138; 6 mm discs, 16 to 18 hours at 35±2° C.): Nil | CLSI susceptibility interpretation (E. coli M-138; CLSI recommendations, 2010): (R)
